Patent US20200216441A1, “PESTICIDALLY ACTIVE HETEROCYCLIC DERIVATIVES WITH SULFUR CONTAINING SUBSTITUENTS” (SYNGENTA PARTICIPATIONS AG, priority 2017, published 2020)

Assays:
[1] = test system: Myzus persicae (Green Peach Aphid); assay: whole plant or invertebrate; conditions: foliar, 144 h
[2] = test system: Spodoptera littoralis (Egyptian Cotton Leaf Worm); assay: whole plant or invertebrate; conditions: in Gossypium barbadense, foliar, 72 h, read-out: control (mortality, anti-feeding effect, growth inhibition)
[3] = test system: Bemisia tabaci (Cotton White Fly); conditions: in Gossypium hirsutum, foliar, 144 h
[4] = test system: Tetranychus urticae (Two-Spotted Spider Mite); conditions: foliar, 192 h
[5] = test system: Diabrotica Balteata (Corn Root Worm); assay: Diabrotica balteata (Corn Root Worm); conditions: in Zea mays, 96 h, read-out: effect in at least one of the two categories (mortality or growth inhibition)
[6] = test system: Euschistus heros (Neotropical Brown Stink Bug); assay: whole plant or invertebrate; type: in vivo; conditions: 120 h, application rate of 200 ppm, N2 nymphs on sprayed soybean leaves, 5 days after infestation, read-out: effect in at least one of the two categories (mortality or growth inhibition)
[7] = test system: Plutella xylostella (Diamond Back Moth); assay: whole plant or invertebrate; type: in vivo; conditions: 120 h, application rate of 200 ppm, L2 larvae on treated artificial diet, 5 days after infestation, read-out: effect in at least one of the two categories (mortality or growth inhibition)
[8] = test system: Myzus persicae (Green Peach Aphid); assay: whole plant or invertebrate; type: in vivo; conditions: 144 h, test rate of 24 ppm, systemic, roots of infested pea seedlings in test solution, 6 days

CCS(=O)(=O)c1cc(OC2CCC2)cnc1-c1nc2cc(C(F)(F)F)ncc2n1C [Compound P62, 2-[5-(cyclobutoxy)-3-ethylsulfonyl-2-pyridyl]-3-methyl-6-(trifluoromethyl)imidazo[4,5-c]pyridine]
≥ 80%: mortality at 200 ppm [1] | mortality at 200 ppm [2] | mortality at 200 ppm [3] | mortality at 200 ppm [4] | mortality at 200 ppm [5] | percent effect (mortality or growth inhibition) at 200 ppm [6] | percent effect (mortality or growth inhibition) at 200 ppm [7]

CCS(=O)(=O)c1cc(OC(C)C)cnc1-c1nc2cc(SC(F)(F)F)ncc2n1C [Compound P71, 2-(3-ethylsulfonyl-5-isopropoxy-2-pyridyl)-3-methyl-6-(trifluoromethylsulfanyl)imidazo[4,5-c]pyridine]
≥ 80%: mortality at 200 ppm [1] | mortality at 200 ppm [2] | mortality at 200 ppm [3] | mortality at 200 ppm [4] | mortality at 200 ppm [5] | percent effect (mortality or growth inhibition) at 200 ppm [6] | percent effect (mortality or growth inhibition) at 200 ppm [7]

CCS(=O)(=O)c1cc(OC(C)(C)CC#N)cnc1-c1nc2cc(C(F)(F)F)ncc2n1C [Compound P47, 3-[[5-ethylsulfonyl-6-[3-methyl-6-(trifluoromethyl)imidazo[4,5-c]pyridin-2-yl]-3-pyridyl]oxy]-3-methyl-butanenitrile]
≥ 80%: mortality at 200 ppm [1] | mortality at 200 ppm [3] | mortality at 24 ppm [8] | mortality at 200 ppm [4] | mortality at 200 ppm [5] | percent effect (mortality or growth inhibition) at 200 ppm [6] | percent effect (mortality or growth inhibition) at 200 ppm [7]

CCS(=O)(=O)c1cc(OCCSC)ccc1-c1nc2cc(C(F)(F)F)ncc2n1C [Compound P104, 2-[2-ethylsulfonyl-4-(2-methylsulfanylethoxy)phenyl]-3-methyl-6-(trifluoromethyl)imidazo[4,5-c]pyridine]
≥ 80%: mortality at 200 ppm [1] | mortality at 200 ppm [3] | mortality at 24 ppm [8] | mortality at 200 ppm [4] | mortality at 200 ppm [5] | percent effect (mortality or growth inhibition) at 200 ppm [6]

CCS(=O)(=O)c1cc(OC(C)C)cnc1-c1nc2cc(S(=O)(=O)C(F)F)ncc2n1C [Compound P88, 6-(difluoromethylsulfonyl)-2-(3-ethylsulfonyl-5-isopropoxy-2-pyridyl)-3-methyl-imidazo[4,5-c]pyridine]
≥ 80%: mortality at 200 ppm [1] | mortality at 200 ppm [2] | mortality at 24 ppm [8] | mortality at 200 ppm [4] | percent effect (mortality or growth inhibition) at 200 ppm [6] | percent effect (mortality or growth inhibition) at 200 ppm [7]

CCS(=O)(=O)c1cc(OC(C)C)cnc1-c1nc2cc([S+]([O-])C(F)F)ncc2n1C (stereo not shown) [Compound P87, 6-(difluoromethylsulfinyl)-2-(3-ethylsulfonyl-5-isopropoxy-2-pyridyl)-3-methyl-imidazo[4,5-c]pyridine]
≥ 80%: mortality at 200 ppm [1] | mortality at 200 ppm [2] | mortality at 24 ppm [8] | mortality at 200 ppm [4] | percent effect (mortality or growth inhibition) at 200 ppm [6] | percent effect (mortality or growth inhibition) at 200 ppm [7]

CCS(=O)(=O)c1cc(OC(C)F)cnc1-c1nc2cc(C(F)(F)F)ncc2n1C (stereo not shown) [Compound P40, 2-[3-ethylsulfonyl-5-(1-fluoroethoxy)-2-pyridyl]-3-methyl-6-(trifluoromethyl)imidazo[4,5-c]pyridine]
≥ 80%: mortality at 200 ppm [1] | mortality at 200 ppm [2] | mortality at 200 ppm [3] | mortality at 24 ppm [8] | mortality at 200 ppm [5] | percent effect (mortality or growth inhibition) at 200 ppm [6] | percent effect (mortality or growth inhibition) at 200 ppm [7]
